We go through 20 compounds from ChEMBL document CHEMBL1201862, “PubChem BioAssay data set” (2004).

One assay has as its system H9c2. In words: cells. It is filed as functional, cell-based. Particulars: Rattus norvegicus, H9c2, Myocardium.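 Also: confirmatory concentration-response retest of ultra-high-throughput screening hits for modulation of myocardial damage; cell death induced by hydrogen peroxide oxidative stress; compound pretreatment for 60 min then peroxide exposure for 2 h; potency is for protecting the cells against peroxide damage rather than for killing them.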
Assay [1] in a line: intracellular Trypanosoma cruzi inhibitors in host cells – cell-based, plate reader, cherry-pick samples, set 3, dose response (AID 651818).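 Also: compounds incubated with infected cells for about four days.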 It is filed as functional.
Assay [2] has as its target T1, Corticotropin-releasing factor receptor 2/Corticotropin-releasing factor-binding protein (Homo sapiens, UniProt P24387+Q13324).
T1 sequence (Q13324 whole entry): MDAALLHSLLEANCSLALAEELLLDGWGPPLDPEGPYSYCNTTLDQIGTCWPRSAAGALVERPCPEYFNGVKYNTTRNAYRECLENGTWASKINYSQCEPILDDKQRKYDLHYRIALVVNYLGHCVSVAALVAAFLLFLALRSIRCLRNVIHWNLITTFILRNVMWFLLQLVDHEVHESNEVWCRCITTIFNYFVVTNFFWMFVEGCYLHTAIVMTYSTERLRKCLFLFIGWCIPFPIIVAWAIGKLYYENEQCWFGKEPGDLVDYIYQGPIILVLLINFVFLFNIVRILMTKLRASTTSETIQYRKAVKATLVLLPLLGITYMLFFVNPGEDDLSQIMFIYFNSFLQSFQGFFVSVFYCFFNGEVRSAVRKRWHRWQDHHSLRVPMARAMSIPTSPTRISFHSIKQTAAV
T1 sequence (P24387 whole entry): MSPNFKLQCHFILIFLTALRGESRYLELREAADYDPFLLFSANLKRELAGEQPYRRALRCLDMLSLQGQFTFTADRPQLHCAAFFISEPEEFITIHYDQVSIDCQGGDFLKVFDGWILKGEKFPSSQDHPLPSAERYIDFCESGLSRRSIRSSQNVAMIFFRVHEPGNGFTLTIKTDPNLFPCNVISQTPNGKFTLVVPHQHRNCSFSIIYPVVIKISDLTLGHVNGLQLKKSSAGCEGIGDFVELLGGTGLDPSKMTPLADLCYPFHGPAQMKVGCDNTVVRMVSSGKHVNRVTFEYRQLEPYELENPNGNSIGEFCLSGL
Description: Dose Response confirmation of uHTS hits for small molecule antagonists of the CRF-binding protein and CRF-R2 receptor complex. It is filed as functional. The settings on record: read-out: IC50_Mean.

A short description of assay [3]: blockers of CRF-binding protein–CRF-R2 complex – cell-based, uHTS hits, 384-well, dose response (AID 651639). The assay is classed as functional, Homo sapiens. The settings on record: read-out: IC50_Mean.
The target of assay [4] is T1, Corticotropin-releasing factor receptor 2/Corticotropin-releasing factor-binding protein. Description: activators of CRF receptor 2 with binding protein – uHTS hits, confirmation (AID 602473). The assay is classed as functional. Particulars: read-out: EC50_Mean.
The target in assay [5] is T2, Sentrin-specific protease 7 (Homo sapiens, UniProt Q9BQF6).
T2 sequence (Q9BQF6 whole entry): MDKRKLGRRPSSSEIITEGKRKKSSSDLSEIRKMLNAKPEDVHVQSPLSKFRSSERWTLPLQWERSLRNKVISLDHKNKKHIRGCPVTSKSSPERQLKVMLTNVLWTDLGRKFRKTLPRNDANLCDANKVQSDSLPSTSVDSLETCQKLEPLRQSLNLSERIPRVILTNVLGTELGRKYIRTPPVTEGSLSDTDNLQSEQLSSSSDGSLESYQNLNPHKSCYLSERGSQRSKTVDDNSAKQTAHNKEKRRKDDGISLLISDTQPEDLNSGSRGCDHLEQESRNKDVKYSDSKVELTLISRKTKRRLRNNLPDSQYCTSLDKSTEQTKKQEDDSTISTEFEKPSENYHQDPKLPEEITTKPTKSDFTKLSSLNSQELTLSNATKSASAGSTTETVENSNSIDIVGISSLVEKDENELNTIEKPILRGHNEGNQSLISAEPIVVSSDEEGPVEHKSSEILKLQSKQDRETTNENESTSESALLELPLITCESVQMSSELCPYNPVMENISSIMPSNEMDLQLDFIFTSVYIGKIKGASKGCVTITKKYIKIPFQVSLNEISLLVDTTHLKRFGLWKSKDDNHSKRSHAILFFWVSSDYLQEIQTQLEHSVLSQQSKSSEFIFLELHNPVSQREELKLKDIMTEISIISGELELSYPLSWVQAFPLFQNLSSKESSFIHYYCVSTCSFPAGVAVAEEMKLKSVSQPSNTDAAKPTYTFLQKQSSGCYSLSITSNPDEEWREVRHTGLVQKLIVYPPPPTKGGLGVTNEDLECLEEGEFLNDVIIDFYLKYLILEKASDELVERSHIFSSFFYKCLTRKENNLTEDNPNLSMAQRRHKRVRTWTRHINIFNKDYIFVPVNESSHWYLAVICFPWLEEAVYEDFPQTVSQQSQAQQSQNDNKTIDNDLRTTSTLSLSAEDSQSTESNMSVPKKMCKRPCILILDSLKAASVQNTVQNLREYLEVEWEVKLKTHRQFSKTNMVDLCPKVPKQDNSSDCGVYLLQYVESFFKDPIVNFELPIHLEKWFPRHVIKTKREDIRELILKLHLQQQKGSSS
Description: inhibition of human SENP7 cleavage activity – biochemical, luminescence, SAR follow-up (AID 504497). It is filed as functional.

In assay [6] the target is T3, Sentrin-specific protease 6 (Homo sapiens, UniProt Q9GZR1).
T3 sequence (Q9GZR1 whole entry): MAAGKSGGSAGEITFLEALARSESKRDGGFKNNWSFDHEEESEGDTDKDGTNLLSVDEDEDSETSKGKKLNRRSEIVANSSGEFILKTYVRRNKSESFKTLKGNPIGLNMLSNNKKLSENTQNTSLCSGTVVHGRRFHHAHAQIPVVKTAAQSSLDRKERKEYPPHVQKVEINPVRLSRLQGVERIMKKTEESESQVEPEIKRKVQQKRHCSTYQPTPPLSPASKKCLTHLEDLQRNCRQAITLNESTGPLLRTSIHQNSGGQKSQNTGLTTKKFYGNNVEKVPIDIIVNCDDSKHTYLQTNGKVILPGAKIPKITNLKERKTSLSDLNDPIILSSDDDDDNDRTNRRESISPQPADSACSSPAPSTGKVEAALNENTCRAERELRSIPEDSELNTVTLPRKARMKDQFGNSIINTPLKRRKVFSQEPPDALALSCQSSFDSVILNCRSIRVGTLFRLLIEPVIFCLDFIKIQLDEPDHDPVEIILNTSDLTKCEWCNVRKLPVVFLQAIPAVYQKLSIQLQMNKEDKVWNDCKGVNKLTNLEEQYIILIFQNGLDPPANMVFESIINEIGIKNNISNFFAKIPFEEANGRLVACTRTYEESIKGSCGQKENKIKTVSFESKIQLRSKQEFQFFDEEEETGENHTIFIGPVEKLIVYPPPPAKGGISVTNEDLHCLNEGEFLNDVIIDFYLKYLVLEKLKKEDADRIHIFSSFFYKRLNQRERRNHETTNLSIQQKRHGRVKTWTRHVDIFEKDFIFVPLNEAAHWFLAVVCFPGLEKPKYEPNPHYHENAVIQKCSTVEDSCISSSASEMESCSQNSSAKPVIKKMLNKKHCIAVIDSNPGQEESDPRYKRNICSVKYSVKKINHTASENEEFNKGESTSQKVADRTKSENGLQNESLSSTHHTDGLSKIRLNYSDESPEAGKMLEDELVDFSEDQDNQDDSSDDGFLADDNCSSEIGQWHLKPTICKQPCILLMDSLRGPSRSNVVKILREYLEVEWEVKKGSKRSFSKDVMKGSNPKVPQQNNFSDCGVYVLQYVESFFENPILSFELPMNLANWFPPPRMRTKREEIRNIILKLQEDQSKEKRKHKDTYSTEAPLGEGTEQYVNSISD
Description: SAR Analysis of small molecule inhibitors of Sentrin-specific protease 6 (SENP6) using a Luminescent assay. [Related pubchem assays (depositor defined):AID2582, AID2599]. It is filed as functional.

Another assay has as its target T4, Caspase-3 (Homo sapiens, UniProt P42574).
T4 sequence (P42574 whole entry): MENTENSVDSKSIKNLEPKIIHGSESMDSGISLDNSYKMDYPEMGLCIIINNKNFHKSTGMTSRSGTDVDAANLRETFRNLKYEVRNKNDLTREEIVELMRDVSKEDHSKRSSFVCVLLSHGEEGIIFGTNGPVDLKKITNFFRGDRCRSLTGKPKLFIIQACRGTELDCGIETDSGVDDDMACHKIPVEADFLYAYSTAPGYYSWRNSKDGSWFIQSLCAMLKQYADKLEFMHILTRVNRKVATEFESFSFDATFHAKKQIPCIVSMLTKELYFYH
In words: SAR Analysis of small molecule inhibitors of Sentrin-specific proteases (SENPs) using a Caspase-3 Selectivity assay. [Related pubchem assays (depositor defined):AID2540, AID2599, AID434973, AID489001]. It is filed as functional.

For assay [7], the target named is T5, Sentrin-specific protease 8 (Homo sapiens, UniProt Q96LD8).
T5 sequence (Q96LD8 whole entry): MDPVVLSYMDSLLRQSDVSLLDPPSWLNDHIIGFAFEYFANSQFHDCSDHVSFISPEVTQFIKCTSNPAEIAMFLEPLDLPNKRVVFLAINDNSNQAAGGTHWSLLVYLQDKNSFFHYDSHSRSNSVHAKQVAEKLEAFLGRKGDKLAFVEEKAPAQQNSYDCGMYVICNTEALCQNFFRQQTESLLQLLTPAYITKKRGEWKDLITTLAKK
Description: inhibition of human SENP8 cleavage activity – biochemical, luminescence, SAR follow-up (AID 504501). The assay is classed as functional.

For another assay, the system named is SN12K1. In words: cells. The assay is classed as functional. The settings on record: Homo sapiens.
Another assay has as its system INS1. In words: INS-1E survival protection against cytokine death – cell-based, luminescence, retest, dose response (AID 449756).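 Also: cell death triggered by IL-1 beta plus TNF-alpha plus IFN-gamma mixture; protective hits raise ATP signal compared with cytokine alone wells.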 It is filed as functional. The settings on record: Rattus norvegicus.

Structures are written as SMILES. Activity calls are given as the source filed them.

With `Cc1ccc(C(C)C)c(OCC(=O)NNC(=O)Cn2[nH]c(=O)c3ccccc3c2=O)c1`, in the assay on H9c2, the IC50 is > 79 µM (inactive).
As to `Cc1noc(C)c1S(=O)(=O)Nc1ccc2c(c1)C(=O)N([C@@H](C)CO)C[C@H](C)[C@H](CN(C)Cc1ccc(C(=O)Nc3ccccc3N)cc1)O2`, the AC50 (in general, the concentration at which the activity in the assay is half-maximal) in assay [1] was 2.08 µM (active).
Turning to `Clc1cccc(-c2nnc(SC/C=C/c3ccccc3)n2Cc2ccco2)c1`, the IC50 in assay [2] is 4.74 µM (active); in assay [3], > 20 µM (inactive). Also, the EC50 in assay [4] was > 53 µM (inactive).
As to `CCCCc1ccc2nc(NC(=O)c3oc4ccccc4c3C)sc2c1`, the IC50 (in assay [5]; in assay [6]; on Caspase-3; in assay [7]) was > 99 µM (inactive) in each case.
As to `CCOc1cc(/C=C(\C#N)C(=O)Nc2ccc(S(N)(=O)=O)cc2)ccc1OCCN1CCOCC1`, the IC50 in the assay on H9c2 is > 79 µM (inactive).
As for `COC(=O)c1ccc(CSc2nc3c(c(=O)n2-c2ccc(Br)cc2)SCC3)o1`, the IC50 is 7.86 µM (active) in assay [2] and 15.4 µM (active) in assay [3]. Besides, the EC50 in assay [4] is > 53 µM (inactive).
`CCOC(=O)c1c(C)[nH]c(C(=O)COc2ccc3ccc(=O)oc3c2)c1C`: the IC50 in the assay on H9c2 was 23.7 µM (active).
Consider `O=C(OC(=O)n1ccc2ccccc21)n1ccc2ccccc21`, for which, in the assay on SN12K1, the GI50 – broadly, the concentration that inhibits growth by half – is > 100 µM (inactive).
Take `CC(C)(C)OC(=O)C[C@@H]1C/C=C\C[C@@H](CC(=O)N[C@H](CO)Cc2ccccc2)C(=O)NC[C@@H](c2ccccc2)OC1=O`: the IC50 in the assay on H9c2 is > 79 µM (inactive).
With `CN(C)CCN(C(=O)c1ccc(Cl)s1)c1nc2ccc(F)cc2s1`, the IC50 (in assay [5]; in assay [6]; on Caspase-3; in assay [7]) was > 99 µM (inactive) throughout.
For `Cc1ccc(C(=O)Nc2nc(-c3ccccn3)cs2)s1`, in the assay on INS1, the AC50 is 1.67 µM (active). Also, the IC50 in the assay on H9c2 is > 79 µM (inactive).
On to `C[C@@H]1CN([C@H](C)CO)C(=O)Cc2cc(NC(=O)Nc3ccc(F)cc3)ccc2O[C@H]1CN(C)CC1CCCCC1`, for which the AC50 in [1] was 6.17 µM (active).
Same read-out and setting: as for `C[C@@H]1CN([C@H](C)CO)C(=O)Cc2cc(NC(=O)Cc3cn(C)c4ccccc34)ccc2O[C@H]1CN(C)CC1CCCCC1`, the figure is 8.13 µM (active).
As to `Cc1[nH]c(=O)sc1S(=O)(=O)N1CCN(C(=O)c2sc3cc(F)ccc3c2Cl)CC1`, the IC50 (in assay [5]; in assay [6]; at Caspase-3; in [7]) was > 99 µM (inactive) throughout.
In the case of `C[C@@H]1CN([C@@H](C)CO)C(=O)c2cc(NC(=O)Cc3cn(C)c4ccccc34)ccc2O[C@H]1CN(C)Cc1ccc(C(F)(F)F)cc1`, in [1], the AC50 is 4.31 µM (active).
On the same count and under the same terms, as for `C[C@@H]1CN([C@H](C)CO)C(=O)Cc2cc(NC(=O)Nc3cccc4ccccc34)ccc2O[C@@H]1CN(C)Cc1ccc(C(F)(F)F)cc1`, the figure is 4.02 µM (active).
As for `CCCc1ccccc1-c1nc(/C=C/c2ccccc2)no1`, the IC50 (in assay [5]; in assay [6]; on Caspase-3; in [7]) was > 99 µM (inactive) in each case.
Take `CCOc1ccc2nc(NC(=O)Cn3c(=O)oc4ccc(C(=O)N5CCCC5)cc43)sc2c1`: the IC50 (in assay [5]; in assay [6]; at Caspase-3; in assay [7]) was > 99 µM (inactive) in each case.
For `C[C@@H]1CN([C@H](C)CO)C(=O)Cc2cc(NS(=O)(=O)c3ccc(Cl)cc3)ccc2O[C@H]1CN(C)CC1CCCCC1`, in [1], the AC50 was 2.67 µM (active).
As for `C[C@H](CO)N1C[C@H](C)[C@@H](CN(C)S(=O)(=O)c2ccc(F)cc2)Oc2ccc(NC(=O)Nc3ccc4c(c3)OCO4)cc2C1=O`, the IC50 in the assay on H9c2 is > 79 µM (inactive).
